Values of other authors, collected in patent US20140288899A1, “C[…] OF BINDING FREE ENERGY, C[…] OF BINDING FREE ENERGY, PROGRAM, SCREENING METHOD OF COMPOUND” (FUJITSU LIMITED, priority 2013, published 2014).

How the values were obtained:
[1] = target: T1, FK506 BINDING PROTEIN (Homo sapiens, UniProt P62942); conditions: calculation value of Wang et al., Biophysical Journal Vol. 91, 2798-2814; restriction with a spring
[2] = target: T1, FK506 BINDING PROTEIN; conditions: experimental value disclosed in Holt et al., J. Am. Chem. Soc. 1993, 115, 9925-9938

T1 sequence (P62942 whole entry): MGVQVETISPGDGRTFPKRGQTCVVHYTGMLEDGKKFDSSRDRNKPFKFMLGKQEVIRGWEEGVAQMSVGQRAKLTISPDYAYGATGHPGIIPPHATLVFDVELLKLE

In the case of `CCC(C)(C)C(=O)C(=O)N1CCCC[C@H]1C(=O)O[C@H](CCc1ccccc1)c1ccccc1` [1fkg, 1,3-DIPHENYL-1-PROPYL-1-(3,3-DIMETHYL-1,2-DIOXYPENTYL)-2-PIPERIDINE CARBOXYLATE], the “binding free energy, calculation result of Comparative Example” value [1] is listed as -10.3 kcal/mol and the “binding free energy, experimental value” [2] is listed as -10.9 kcal/mol.
